From patent US6706880B2 (Research Triangle Institute, priority 1990, dated 2004)
Where a name gives a salt, the structure may show the parent alone. Read-outs that look alike come from different tables or passages of the source.

Legend:
dopamine transporter = dopamine transporter (UniProt P23977); format: binding
From the text: (§1) Illustrative in vitro assays for binding are described in Boja et al Ann. NY Acad. Sci. 654:282-291 (1992), which is incorporated herein by reference in its entirety. […] Alternatively, the compounds may be analyzed by their ability to inhibit reuptake of a labelled neurotransmitter in a sample, in particular, in synaptosomes.

serotonin transporter = target: T1, serotonin transporter (Rattus norvegicus, UniProt P31652); assay: Inhibition of [3H]paroxetine radioligand binding at the serotonin transporter
T1 construct: from tissue
T1 sequence (P31652 whole entry): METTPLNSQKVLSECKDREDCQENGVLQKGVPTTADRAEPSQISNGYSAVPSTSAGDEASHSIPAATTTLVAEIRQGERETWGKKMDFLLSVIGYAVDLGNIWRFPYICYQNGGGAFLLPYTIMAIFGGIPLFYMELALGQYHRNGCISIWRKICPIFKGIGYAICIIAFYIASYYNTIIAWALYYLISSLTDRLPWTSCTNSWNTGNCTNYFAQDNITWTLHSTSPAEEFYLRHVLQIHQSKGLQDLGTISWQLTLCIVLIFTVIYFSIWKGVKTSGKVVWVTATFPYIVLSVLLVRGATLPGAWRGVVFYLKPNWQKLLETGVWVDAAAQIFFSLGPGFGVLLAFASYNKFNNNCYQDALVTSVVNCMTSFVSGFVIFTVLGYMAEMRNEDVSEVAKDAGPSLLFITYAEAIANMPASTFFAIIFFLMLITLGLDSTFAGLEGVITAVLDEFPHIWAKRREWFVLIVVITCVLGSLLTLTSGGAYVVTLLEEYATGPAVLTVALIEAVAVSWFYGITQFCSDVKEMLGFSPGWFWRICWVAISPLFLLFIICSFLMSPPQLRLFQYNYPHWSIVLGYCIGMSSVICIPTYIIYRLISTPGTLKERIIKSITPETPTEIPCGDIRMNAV
From the text: as §1

[1] = target: norepinephrine transporter (UniProt Q9WTR4); assay: Inhibition of [3H]nisoxetine radioligand binding at the norepinephrine transporter
From the text: as §1

[2] = read-out: IC50 DA [3H]-WIN 35,428, Table IV
[3] = IC50 5-HT [3H]-paroxetine, Table IV
[4] = read-out: IC50 NE [3H]-nisoxetine, Table IV
[5] = IC50 5-HT [3H]-paroxatine, Table II
[6] = read-out: IC50 NE [3H]-nisoxetine, Table II
[7] = 5-HT=[3H] paroxetine, read-out: 5-HT IC50 for inhibition of radioligand binding
[8] = read-out: DA IC50 for inhibition of radioligand binding, DA=[3H]WIN 35,428
[9] = read-out: NEN IC50 for inhibition of radioligand binding, NEN=[3H] nisoxetine
[10] = 5-HT IC50 for inhibition of radioligand binding, 5-HT=[3H] paroxetine

Structure (SMILES) | IC50 (dopamine transporter; [2]) [nM] | IC50 (serotonin transporter; [3]) [nM] | IC50 [1, 4] [nM] | IC50 (dopamine transporter; [8]) [nM] | IC50 [1, 9] [nM] | IC50 (serotonin transporter; [10]) [nM] | also measured
CN1[C@H]2CC[C@@H]1[C@@H](CO)[C@@H](c1ccc(Cl)cc1)C2 [RTI-93] | 1.53 ± 0.15 | 204 ± 16 | 43.8 ± 6.4 |  |  |  | 
CN1[C@H]2CC[C@@H]1[C@@H](CO)[C@@H](c1ccc(Br)cc1)C2 [RTI-99] | 1.49 ± 0.06 | 51 ± 4.6 |  |  |  |  | 
CN1[C@H]2CC[C@@H]1[C@@H](CO)[C@@H](c1ccc(F)cc1)C2 [RTI-100] | 47 ± 4.6 | 4740 ± 335 |  |  |  |  | 
CN1[C@H]2CC[C@@H]1[C@@H](C(=O)O)[C@@H](c1ccc(I)cc1)C2 [RTI-102] | 474 ± 57 | 1930 ± 120 | 43400 |  |  |  | 
CN1[C@H]2CC[C@@H]1[C@@H](C(=O)O)[C@@H](c1ccc(Br)cc1)C2 [RTI-103] | 278 ± 43 | 3070 ± 208 | 17400 |  |  |  | 
CN1[C@H]2CC[C@@H]1[C@@H](C(=O)O)[C@@H](c1ccc(F)cc1)C2 [RTI-104] | 2740 ± 141 | > 100 | > 100000 |  |  |  | 
Cc1ccc([C@H]2C[C@@H]3CC[C@H]([C@H]2CN)N3C)cc1 [RTI-131] | 10.5 ± 1.7 | 855 ± 52 | 120 ± 20 |  |  |  | 
Cc1ccc([C@H]2C[C@@H]3CC[C@H]([C@H]2C#N)N3C)cc1 [RTI-158, 3β-(4-Methylphenyl)-tropane-2β-nitrile Hydrochloride] | 57 ± 7.3 | 5100 ± 315 | 1620 ± 136 |  |  |  | 
CN1[C@H]2CC[C@@H]1[C@@H](c1nnn[nH]1)[C@@H](c1ccc(Cl)cc1)C2 [RTI-163, 3β-(4-Chlorophenyl)-tropane-2β-tetrazole] |  |  |  |  |  |  | IC50 (serotonin transporter; [5]): 5460 ± 64 nM; IC50 [1, 6]: 17400 nM
CNC[C@H]1[C@@H](c2ccc(C)cc2)C[C@@H]2CC[C@H]1N2C [RTI-164] | 13.6 ± 2.03 | 2250 ± 94 | 280 ± 19 |  |  |  | 
Cc1cc([C@H]2[C@@H](c3ccc(Cl)cc3)C[C@@H]3CC[C@H]2N3C)on1 [RTI-165, 3β-(4-Chlorophenyl)-2β-(3-methylisoxazol-5-yl)tropane Hydrochloride] |  |  |  |  |  |  | IC50 (dopamine transporter; read-out: IC50 DA [3H]-WIN 35,428, Table II): 0.59 ± 0.04 nM; IC50 (serotonin transporter; [5]): 572 ± 58 nM; IC50 [1, 6]: 181 ± 12 nM
COC(=O)C1C(c2ccc(Cl)cc2)CC2CCC1N2C (stereo not shown) [RTI-4229-31] |  |  |  |  |  |  | IC50 (serotonin transporter; [7]): 44.5 nM
COC(=O)C1C(c2ccc(C)cc2)CC2CCC1N2C (stereo not shown) [RTI-4229-32] |  |  |  | 1.71 | 60 |  | 
COC(=O)C1C(c2ccc(Br)cc2)CC2CCC1N2C (stereo not shown) [RTI-4229-51] |  |  |  | 1.69 |  | 240 | 
COC(=O)C1C(c2ccc(I)cc2)CC2CCC1N2C (stereo not shown) [RTI-4229-55] |  |  |  | 1.26 | 36 |  | IC50 (serotonin transporter; [7]): 4.21 nM
CN1C2CCC1C(C(=O)OCCc1ccc(N)c(I)c1)C(c1ccc(Cl)cc1)C2 (stereo not shown) [RTI-4229-77] |  |  |  | 2.51 | 2250 |  | 
CCc1ccc(C2CC3CCC(C2C(=O)OC)N3C)cc1 (stereo not shown) [RTI-4229-83] |  |  |  | 55 |  |  | IC50 (serotonin transporter; [7]): 28.4 nM
Cc1noc(C2C(c3ccccc3)CC3CCC2N3C)n1 (stereo not shown) [RTI-4229-87] |  |  |  | 204 | 35800 | 28400 | 
COC(=O)C1C(c2ccc(F)c(C)c2)CC2CCC1N2C (stereo not shown) [RTI-4229-96] |  |  |  | 2.95 | 520 | 76 | 
COC(=O)[C@@H]1C2CCC(C[C@@H]1c1ccc(N)c(Br)c1)N2C (stereo partly shown) [RTI-4229-97] |  |  |  | 3.91 | 282 | 181 | 
COC(=O)[C@@H]1C2CCC(C[C@@H]1c1ccc(I)cc1)N2 (stereo partly shown) [RTI-4229-98] |  |  |  | 0.69 | 11 | 0.36 | 
CN1C2CCC1C(CO)C(c1ccc(I)cc1)C2 (stereo not shown) [RTI-4229-101] | 2.2 ± 0.19 | 26 ± 3.2 |  | 2.2 |  | 26 | 
CC(=O)OC[C@@H]1C2CCC(C[C@@H]1c1ccc(Cl)cc1)N2C (stereo partly shown) [RTI-4229-105] | 1.8 ± 0.05 | 143 ± 25 | 127 ± 5.9 | 1.6 | 127 | 143 | 
CN1C2CCC1[C@@H](CCl)[C@@H](c1ccc(Cl)cc1)C2 (stereo partly shown) [RTI-4229-108] | 2.64 ± 0.31 | 98 ± 8.7 | 129 ± 15 | 2.64 | 129 | 98 | 
COC(=O)C1C2CCC(CC1c1ccc(Cl)cc1)N2 (stereo not shown) [RTI-4229-110] |  |  |  | 0.62 | 5.45 |  | IC50 (serotonin transporter; [7]): 4.13 nM
COC(=O)[C@@H]1C2CCC(C[C@@H]1c1ccc(Cl)c(Cl)c1)N2C (stereo partly shown) [RTI-4229-111] |  |  |  | 0.79 | 18 | 3.13 | 
COC(=O)[C@@H]1C2CCC(C[C@@H]1c1ccc(Cl)c(C)c1)N2C (stereo partly shown) [RTI-4229-112] |  |  |  | 0.82 | 36.2 | 10.5 | 
CN1C2CCC1C(C(=O)Oc1ccccc1)C(c1ccc(Cl)cc1)C2 (stereo not shown) [RTI-4229-113] |  |  |  | 1.98 | 2960 |  | IC50 (serotonin transporter; [7]): 2330 nM
